From patent US20120129897A1, “BIS HETEROARYL INHIBITORS OF PRO-MATRIX METALLOPROTEINASE ACTIVATION” (priority 2010, published 2012)

Target: T1, proMMP9 (Rattus norvegicus, UniProt P50282)
T1 construct: endogenous in cells; host or cells: primary synoviocytes from arthritic female Lewis rats
Experiment: Activation of proMMP9 in rat synoviocyte cultures (Western blot)
Format: cell-based
Conditions: for Signal of 80 kD band (INT*mm^2): final 48 hrs, TNFα-stimulated, pAb-1246; for 80 kD active MMP9 form detected with mAb L51/82 / 80 kD active MMP9 detected with pAb-1246: 0.37-10 μM; for 80 kD active MMP9 form detected with mAb L51/82: FIG. 1A; for 80 kD active MMP9 detected with pAb-1246: FIG. 1B
Excerpt: A primary synoviocytes line was derived from the periarticular tissue of arthritic rats. Arthritis was induced in female Lewis rats following an i.p. administration of streptococcal cell wall peptidoglycan polysaccharides (J Exp Med 1977; 146:1585-1602). Rats with established arthritis were sacrificed, and hind-limbs were severed, immersed briefly in 70% ethanol, and placed in a sterile hood. The skin was removed and the inflamed tissue surrounding the tibia-tarsal joint was harvested using a scalpel. Tissue from six rats was pooled, minced to approximately 8 mm^3 pieces, and cultured in Dulbecco's Modified Eagle's Medium (DMEM) containing 15% fetal calf serum (FCS). In the following weeks, cells migrated out of the tissue piece, proliferated, and formed a monolayer of adherent cells. The synoviocytes were lifted from culture plates with 0.05% trypsin and passaged weekly at 1:4 ratios in DMEM containing 10% FCS. Synoviocytes were used at passage 9 to investigate the ability of Compound-α to inhibit the maturation of MMP9 to active form.
Rat synoviocytes spontaneously expressed and activated MMP9 when cultured in collagen gels and stimulated with tumor necrosis factor-alpha (TNFα) (FIG. 1 and Table 3). Eight volumes of an ice-cold solution of 3.8 mg/mL rat tail collagen (Sigma Cat #C3867-1VL) were mixed with 1 volume of 1 M sodium bicarbonate and 1 volume of 10× Roswell Park Memorial Institute medium. The pH of the mixture was adjusted to pH 7 with 1 N sodium hydroxide and equal volumes of the pH-adjusted collagen solution were mixed with DMEM containing 0.8 million synoviocytes per mL. One half mL volumes were dispensed into Costar 24-well culture dishes and placed for one hr at 37° C. and 5% CO2, during which time the collagen solution formed a gel. Individual gels were dislodged into wells of 12-well Costar plates containing 1 mL/well of DMEM adjusted to contain 0.05% BSA and 100 ng/mL mouse TNFα (R&D Systems Cat #410-MT-010). […] After overnight culture at 37° C. and 5% CO2, wells were adjusted to contain an additional 0.5 mL of DMEM containing 0.05% BSA and Compound-α at 4× the final desired concentration (final culture volumes were 2 mL). The plates were cultured an additional 48 hrs, at which time 1 mL of conditioned media were harvested into fresh eppendorf tubes containing 40 μL/mL of a 50% slurry of gelatin-conjugated sepharose (GE Healthcare Cat #17-0956-01). Samples were rotated for 2 hrs at 4° C. before centrifugation 1 min×200 g. Supernatants were discarded. The gelatin-sepharose pellets were washed once with 1 mL of ice cold DMEM, resuspended in 50 μL of 2× reducing Leamli buffer and heated 5 min at 95° C. Fifteen μL of eluted proteins were resolved on 4-12% NuPAGE gels and transferred to 0.45 μm pore-sized nitrocellose blots. Next, blots were incubated in blocking buffer (5% milk in Tris-buffered saline containing 0.1% Tween-20) for 1 hr at RT and probed overnight (4° C.) with blocking buffer containing 1 μg/mL primary antibodies. Blots were next probed 1 hr at RT with 1/10,000 dilutions of goat anti-mouse IgG-HRP or goat anti-rabbit IgG-HRP (Santa Cruz) in blocking buffer and developed using SuperSignal® West Fempto Maximum Sensitivity Substrate. Chemiluminesence signal was analyzed using a ChemiDoc imaging system (BioRad Laboratories) and Quantity One® image software. Electrophoretic mobility was estimated based on the mobility of standards (Novex Sharp Pre-Stained Protein Standards P/N 57318).
Mouse mAb-L51/82 (UC Davis/NIH NeuroMab Facility, Antibody Incorporated) was used to detect pro and processed forms of MMP9. Synoviocyte-conditioned media contained an approximately 80 kD form of MMP9 (FIG. 1A, lane 2). […] The 86 kD form was predominant in the presence of 10 μM Compound-α (FIG. 1A, lane 6). Lane 1 was loaded with a standard containing 3 ng of full-length rat proMMP9(1-708) (SEQ ID NO:11) and 3 ng of full-length rat proMMP9(1-708) (SEQ ID NO:11) converted to catalytic rat MMP9 by catalytic MMP3. […]

T1 sequence (P50282 20-708 limits assumed): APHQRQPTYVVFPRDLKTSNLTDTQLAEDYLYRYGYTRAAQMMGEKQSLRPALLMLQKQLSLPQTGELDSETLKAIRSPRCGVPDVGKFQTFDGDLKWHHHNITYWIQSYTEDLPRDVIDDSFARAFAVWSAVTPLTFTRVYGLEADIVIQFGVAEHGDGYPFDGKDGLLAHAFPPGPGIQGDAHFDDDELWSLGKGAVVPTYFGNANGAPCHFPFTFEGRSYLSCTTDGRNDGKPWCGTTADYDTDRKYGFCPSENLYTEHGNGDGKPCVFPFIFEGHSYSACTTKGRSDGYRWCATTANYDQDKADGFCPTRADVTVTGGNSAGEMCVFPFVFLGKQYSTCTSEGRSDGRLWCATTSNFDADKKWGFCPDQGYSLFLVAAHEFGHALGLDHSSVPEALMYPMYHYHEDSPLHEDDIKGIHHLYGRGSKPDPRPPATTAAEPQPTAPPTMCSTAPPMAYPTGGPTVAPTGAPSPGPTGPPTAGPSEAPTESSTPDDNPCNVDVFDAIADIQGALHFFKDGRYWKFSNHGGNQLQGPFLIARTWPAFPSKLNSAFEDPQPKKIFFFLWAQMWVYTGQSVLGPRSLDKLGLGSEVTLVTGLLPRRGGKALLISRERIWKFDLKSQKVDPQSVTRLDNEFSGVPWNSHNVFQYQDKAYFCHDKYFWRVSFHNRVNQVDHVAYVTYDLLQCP

In the case of `Cc1nc(C)c(-c2csc(Nc3cc(S(N)(=O)=O)ccc3OC(C)C)n2)s1` [Compound-α, 3-(2′,4′-Dimethyl-[4,5′]bithiazolyl-2-ylamino)-4-isopropoxy-benzenesulfonamide.HBr], the “Signal of 80 kD band (INT*mm^2)” value (0.37 μM) was 74381 INT*mm^2, the “Signal of 80 kD band (INT*mm^2)” value (1.1 μM) was 45381 INT*mm^2 and the “Signal of 80 kD band (INT*mm^2)” value (3.3 μM) was 11554 INT*mm^2. The “Signal of 80 kD band (INT*mm^2)” value (10 μM) was 2578 INT*mm^2, the “80 kD active MMP9 form detected with mAb L51/82” value was “reduced in a dose dependent fashion” and the “80 kD active MMP9 form detected with mAb L51/82” value (listed as Compound a) was “dose-dependent reduction in the appearance of the 80 kD active form of MMP9”. The “80 kD active MMP9 detected with pAb-1246” value was “dose-dependent reduction in active MMP9” and the “80 kD active MMP9 detected with pAb-1246” value (listed as Compound α) was “dose-dependent reduction in the appearance of the 80 kD active form of MMP9”.
